Measured values: PMC12498190, “A Photocaged N‐Phosphonopiperidinone as a Selective Photo‐Cleavable DPP8/9 Inhibitor” (Chembiochem, 2025)
Like-named read-outs stand apart in the source and are kept apart here.

What was measured:
HEK293 cells = test: Cell viability assay (MTT); type: cell-based, human; details: 24 h; for Viability of cells (in words): after 5 min green light irradiation
Protocol: Figure 2 Competitive ABPP with photo‐cleavable inhibitor 5 in HEK293 cells. A) Schematic overview of a competitive ABPP experiment. A proteome is pre‐incubated with a competitor, followed by a labeling reaction with an activity‐based probe (ABP). In the case of a photocaged inhibitor, the active compound can be released via irradiation. Target proteins of the competitor cannot be bound by the ABP, resulting in an absence of the respective protein band in‐gel analysis. Created in BioRender. Najdzion, M. (2025) https://BioRender.com/84zn8cb B) Gel‐based competitive ABPP experiment in HEK293 cell lysates with the broadband serine hydrolase ABP ≡FP or the DPP8/9‐directed ABP 2 and the photocaged inhibitor 5, at the indicated concentrations, after or without prior irradiation with green light for 5 min. The corresponding pre‐incubation time for 5 was 30 min. C) Corresponding in situ competitive ABPP experiment in HEK293 cell culture, again with 10 µM 2 for 1 h. Labeling was competed by pre‐incubation with 20 µM 5 for 1 h, followed by an activation of the photocaged inhibitor by irradiation for 5 min with a green LED lamp, if applicable. D) Green light treatment has no cytotoxic effect. HEK293 cells were irradiated with a green LED lamp in the presence of 0.5% DMSO for 5 min (‘light’), and cell viability was measured after 24 h. […] Data was normalized to the non‐irradiated control (‘dark’). E) Green light treatment leads to the release of the active DPP8/9 inhibitor. HEK293 cells were incubated with compound 1 or 5 for 24 h. For both compounds, cell viability was measured under ‘dark’ (not irradiated) and ‘light’ (irradiated for 5 min with a green LED lamp after the addition of the inhibitor) conditions. […] Data was normalized to the non‐irradiated DMSO control.
In order to validate target engagement in living cells and potential cytotoxic effects of green light treatment, we determined cell viability of HEK293 cells after 24 h inhibitor treatment with 5 with or without 5 min green light irradiation, as the application of DPP8/9 inhibitors at high concentrations and thus elimination of any residual DPP8/9 activity results in cytotoxicity.^[ [38], [39] ^– [40] ^] As a control, effects of green light treatment on cell viability were examined in the absence of any inhibitor after 24 h, again with or without 5 min irradiation (Figure 2D). […] Of note, no additional effect of the photocage on cell viability was observed. In summary, our cell viability studies confirm target engagement in live cells exclusively after photorelease, thereby again confirming the suitability of the photocaged DPP8/9 inhibitor 5 as a cell biological tool compound.
To investigate the cytotoxicity of compounds, 2 × 10^4 HEK293 cells were cultured in DMEM (+/+) on 96‐well flat‐bottom cell culture plates (Sarstedt, Germany) as described above. After 24 h, cells were treated with indicated concentrations of compounds (final DMSO concentration: 0.5%) and, if applicable, irradiated with a green LED lamp (λ = 520−530 nm; Eurolite, Germany) for 5 min. Control cells were treated with DMSO. Cell viability was measured 24 h after compound treatment. To this end, 25 µL Thiazolyl Blue Tetrazolium Bromide (MTT) solution (5 mg mL^−1 MTT (Sigma Aldrich, USA) in PBS (Gibco, USA)) was added to each well directly into the medium. After 3 h of incubation at 37 °C, the medium was removed and formazan crystals were dissolved by adding 150 µL DMSO (1 h, 37 °C, gentle shaking), followed by an absorbance measurement at 570 and 630 nm as a reference using a Tecan Spark 10 M multimode microplate reader (Tecan Group Ltd., Switzerland). Each experiment was performed with five replicates. Relative cell viability was expressed as a percentage relative to the DMSO‐treated control cells.

DPP9 = DPP9 (Homo sapiens, UniProt Q86TI2); test: DPP9 enzyme inhibition assay, AMC release from GP-AMC; type: biochemical; set-up: purchased Proteros Biostructures GmbH, Germany; details: for IC50: read-out: Apparent IC50
Chain of DPP9 (Q86TI2 whole entry): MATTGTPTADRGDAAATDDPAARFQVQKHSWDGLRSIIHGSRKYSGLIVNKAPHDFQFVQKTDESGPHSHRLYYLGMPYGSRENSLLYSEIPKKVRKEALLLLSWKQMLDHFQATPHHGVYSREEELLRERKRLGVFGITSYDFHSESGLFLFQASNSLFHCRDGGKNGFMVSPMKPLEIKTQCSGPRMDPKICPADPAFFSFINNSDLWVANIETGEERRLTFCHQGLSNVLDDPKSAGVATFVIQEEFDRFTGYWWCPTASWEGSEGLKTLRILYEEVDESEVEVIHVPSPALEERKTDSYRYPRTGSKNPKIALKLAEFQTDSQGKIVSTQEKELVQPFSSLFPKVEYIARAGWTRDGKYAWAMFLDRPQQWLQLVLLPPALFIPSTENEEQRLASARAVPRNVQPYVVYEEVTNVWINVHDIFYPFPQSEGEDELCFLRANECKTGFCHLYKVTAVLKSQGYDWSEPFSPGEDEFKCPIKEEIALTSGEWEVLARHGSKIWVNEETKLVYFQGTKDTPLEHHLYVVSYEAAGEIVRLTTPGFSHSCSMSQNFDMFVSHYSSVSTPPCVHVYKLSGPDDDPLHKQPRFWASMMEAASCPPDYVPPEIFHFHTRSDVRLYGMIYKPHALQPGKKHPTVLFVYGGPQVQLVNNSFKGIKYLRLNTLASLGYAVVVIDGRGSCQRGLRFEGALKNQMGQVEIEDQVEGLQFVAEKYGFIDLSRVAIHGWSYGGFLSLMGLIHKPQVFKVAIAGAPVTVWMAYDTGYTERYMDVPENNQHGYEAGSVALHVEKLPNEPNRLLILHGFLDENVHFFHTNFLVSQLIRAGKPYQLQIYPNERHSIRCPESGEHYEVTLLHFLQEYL
Excerpt: We then continued to investigate the biochemical properties of the photocaged compound 5 versus the photoreleased product resembling inhibitor 1. To this end, we performed biochemical enzyme inhibition assays with DPP8 and DPP9 before and after irradiation of 5. Resulting DPP8/9 inhibition was quantified by following the DPP8‐ or DPP9‐mediated proteolysis of the fluorophore 7‐amino‐4‐methylcoumarin (AMC) from the model substrate Gly‐Pro‐AMC (Figure 1C,D and Table 1 ). To induce photocleavage of 5, reaction mixtures were irradiated for 5 min with the same green LED lamp as before, followed by a pre‐incubation of 45 min with the photoreleased inhibitor prior to substrate addition.
Enzyme activity of human DPP4, DPP8, and DPP9 (Proteros Biostructures GmbH, Germany) was determined by measuring the initial velocity of AMC release from the fluorogenic substrate GP‐AMC (Sigma Aldrich, USA) using a Tecan Spark 10 M multimode microplate reader (Tecan Group Ltd., Switzerland) in activity buffer (20 mM HEPES/KOH pH 7.3, 110 mM potassium acetate, 2 mM magnesium acetate, 0.5 mM EGTA, 0.02% Tween 20, supplemented with 1 mM DTT) and a final volume of 20 μL for maximal 30 min at 30 °C. Prior to the activity measurement, 10 nM of the corresponding enzyme was incubated for 45 min at 30 °C and gentle shaking with the indicated compounds at concentrations ranging from 0 to 100 μM, followed by irradiation with a green LED lamp (λ = 520−530 nm; Eurolite, Germany) for 5 min. The corresponding compounds were dissolved in DMSO and diluted in activity buffer (final DMSO concentration: 1%). To the inhibitor–enzyme mixture, GP‐AMC was then added to a final concentration of 250 μM, and the activity measurement was started. The resulting enzyme activity was calculated from the slope (fluorescence release over time) and plotted against the concentrations of the inhibitor. Apparent IC50 values were calculated using Graph‐Pad Prism v10.4.1 using the equation: [Inhibitor] versus response‐Variable slope (four parameters). All measurements were performed in triplicate, and error bars represent standard errors of the fit.

## CCCCCc1ccc(SCCP(=O)(OCC)N2CCC[C@H](NC(=O)OCC3=C4C(C)=CC(C)=[N+]4[B-](C)(C)n4c(C)cc(C)c43)C2=O)cc1 (some centres unmarked) [Compound 5]
HEK293 cells; 25 µM
  Viability of cells (in words): significantly reduced
HEK293 cells; 50 µM
  Viability of cells (in words): significantly reduced
HEK293 cells; dark, up to highest concentrations used
  Cytotoxicity (in words): no cytotoxicity
DPP9
  Dark/light ratio of apparent IC50: 40
DPP9; apparent IC50 dark vs light
  Increase in potency after green light-mediated photorelease: ~40 fold
DPP9; dark (without green light irradiation), 45 min pre-incubation
  IC50: 24.7 µM
DPP9; light (5 min green LED, 520-530 nm), 45 min pre-incubation
  IC50: 0.621 ± 0.054 µM
DPP9; without irradiation
  IC50: 24.7 ± 6.8 µM
